Data from PubChem BioAssay AID652227 (The Scripps Research Institute Molecular Screening Center, 2013).

Target: Serine/threonine-protein phosphatase PP1-alpha catalytic subunit (Homo sapiens) (UniProt P62136)
Experiment: PP1alpha phosphatase inhibitors, phosphorylase substrate – biochemical, radiolabel, dose response, powder samples, set 2, orthogonal assay for PP1 inhibitor probe project, late-stage follow-up (AID 652227)
Details: purified PP1alpha, 32P/33P-phosphorylase dephosphorylation, scintillation

Chain of Serine/threonine-protein phosphatase PP1-alpha catalytic subunit (Homo sapiens) (P62136 whole entry, looked up): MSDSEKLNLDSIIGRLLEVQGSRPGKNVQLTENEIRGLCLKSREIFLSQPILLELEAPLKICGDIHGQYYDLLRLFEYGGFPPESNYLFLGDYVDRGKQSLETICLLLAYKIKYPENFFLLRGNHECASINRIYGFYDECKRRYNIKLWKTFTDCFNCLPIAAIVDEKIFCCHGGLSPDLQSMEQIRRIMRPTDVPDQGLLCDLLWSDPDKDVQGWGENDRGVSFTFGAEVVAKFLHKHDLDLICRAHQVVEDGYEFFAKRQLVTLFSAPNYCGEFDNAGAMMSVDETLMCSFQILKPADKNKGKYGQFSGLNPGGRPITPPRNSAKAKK

CCOC(=O)c1sc2nc3c(SCC(=O)O)cc(C(=O)c4cc(F)ccc4O)cn3c(=O)c2c1C
IC50: 8.54 µM

CN1CCN(C(c2ccccn2)c2cc(Cl)c3cccnc3c2O)CC1 (stereo not given)
IC50: 4.89 µM

N#Cc1c(-c2ccc(Cl)cc2)cc(-c2cccs2)nc1SCC(=O)O
IC50: 21.9 µM

CCn1c2ccccc2c2cc(NC(=O)COC(=O)c3ccc(NC(=O)CC#N)cc3)ccc21
IC50: 38 µM

COc1ccc(NC(=O)C2C3CCC(O3)C2C(=O)O)c(OC)c1 (stereo not given)
IC50: 18.9 µM
